Data published in article PMC8228600, “Design, Synthesis, In Vitro and In Vivo Evaluation of Heterobivalent SiFAlin-Modified Peptidic Radioligands Targeting Both Integrin αvβ3 and the MC1 Receptor—Suitable for the Specific Visualization of Melanomas?” (Pharmaceuticals, 2021).
Read-outs that look alike come from different tables or passages of the source.

What was measured:
[1] = Ex vivo biodistribution: uptake in U87MG tumors and tumor-to-organ ratios; parameters: species or system nude mice (Balb/cAnNRj-Foxn1nu/nu); details: male, Balb/cAnNRj-Foxn1nu/nu (nude), mouse, iv, total radioactivity; for tissue uptake: U87MG tumor (integrin αvβ3-positive); for tissue to tissue ratio: ex vivo biodistribution, mean (n = 3) ± SD
Protocol: (§1) For the evaluation of the in vivo pharmacokinetics, the two most promising HBPLs—[^18F]2 with the highest affinity to both target receptors and [^18F]4 with the highest hydrophilicity and still reasonable binding affinities—were selected. For PET/CT imaging, 6-week-old male nude mice (Balb/cAnNRj-Foxn1^nu/nu) were subcutaneously injected with 5 × 10^5 B16F10 cells into the right flank and 2.0–2.5 × 10^6 U87MG cells into the left flank to generate the respective receptor-positive tumors. When the tumors reached a sufficient size for imaging, each mouse was administered 4.15 ± 2.28 MBq of [^18F]2 or 3.95 ± 2.06 MBq of [^18F]4 via the lateral tail vein under isoflurane anesthesia. To determine the receptor specificity of both peptide parts of the labeled HBPLs and their relative contribution to overall tumor uptake, blocking experiments were also performed. […] After i.v. injection of the tracers, a dynamic PET scan, followed by a CT scan, was performed. The resulting PET/CT images and time–activity curves (TACs) are depicted in Figure 6, Figure 7 and Figure 8. After completion of the diagnostic scans, the mice were sacrificed, their organs (blood, spleen, liver, kidney, pancreas, lung, heart, brain, bone, muscle, tail, tumors, stomach, colon and small intestine) were collected and measured in a γ-counter for ex vivo biodistribution (see Supplementary Materials Table S1 for detailed results).
(§2) Each male nude mouse (six weeks old) was injected subcutaneously with 5 × 10^5 B16F10 cells into the right flank and 2.0–2.5 × 10^6 U87MG cells into the left flank. The health status and tumor growth of the mice were monitored regularly until the animals could be examined after 15–21 days, depending on the tumor size. For the in vivo experiments, the ^18F-radiolabeled compound was diluted in 0.9% saline to give a final EtOH concentration of <10%. Each mouse was injected with 4.15 ± 2.28 MBq of [^18F]2 or 3.95 ± 2.06 MBq of [^18F]4 via the lateral tail vein under isoflurane anesthesia. […] Each ^18F-labeled compound was studied with or without blocking in at least three mice. Mice were measured under isoflurane anesthesia in a small PET/SPECT/CT animal imaging system. First, a dynamic PET scan was performed over 90 min and the scan was framed in 29 timeframes (10 × 1 min, 10 × 2 min, 6 × 5 min, 3 × 10 min). Images were reconstructed using 12 iterations, a maximum likelihood expectation maximization (MLEM) algorithm including corrections for scattered radiation and decay and a voxel size of 0.5 mm. All PET scans were immediately followed by CT acquisition at a voltage of 45 kV and a current of 400 μA. The images were reconstructed using the filtered back projection (FBP) algorithm with a voxel size of 250 μm. The analysis of the data, including the generation of TACs of the kidneys, liver and tumors and the MIPs, was performed via PMOD (v3.8). For ex vivo biodistribution, the mice were sacrificed directly after the PET/CT scan. Organs (blood, spleen, liver, kidneys, pancreas, lungs, heart, brain, bone, muscle, tail, tumors, stomach, colon and small intestine) were collected, weighed and their radioactivity measured in a γ-counter. The percentage injected dose per gram (% ID/g) of each tissue was calculated from the determined values, organ weights, reference values and injected activity.

[2] = system: integrin αvβ3-positive U87MG tumors; assay: as above; parameters: species or system nude mice (Balb/cAnNRj-Foxn1nu/nu); details: c(RGDyK) blocking (200 μg coinjected); ex vivo after PET/CT scan; i.v.; n = 3
Protocol: as §1, §2

B16F10 and U87MG tumors = assay: In vivo dynamic PET/CT imaging and time–activity curves; parameters: species or system nude mice (Balb/cAnNRj-Foxn1nu/nu)
Protocol: as §1
Briefly, 4–5-week-old male nude mice (Balb/cAnNRj-Foxn1^nu/nu) were obtained from Janvier. A dynamic PET scan over 90 min and a subsequent CT image over 20 min were acquired using a triple-modality Bruker Albira II small-animal PET/CT/SPECT scanner. Three animals were studied per group.
as §2

[3] = Ex vivo biodistribution in tumor-bearing nude mice (non-tumor tissues); details: male, Balb/cAnNRj-Foxn1nu/nu (nude), mouse, iv, total radioactivity, ex vivo after PET/CT scan, i.v., n = 3
Protocol: as §1, §2

## CCCC[C@H](NC(=O)CNC(=O)CNC(=O)CCOCCOCCOCCOCCC(=O)NCCCN(CCCNC(=O)CCOCCOCCOCCOCCC(=O)NCCCC[C@@H]1NC(=O)[C@@H](Cc2ccccc2)NC(=O)[C@H](CC(=O)O)NC(=O)CNC(=O)[C@H](CCCNC(=N)N)NC1=O)CC(=O)N[C@@H](CCCCNC(=O)CCC[N+](C)(C)Cc1ccc([Si](F)(C(C)(C)C)C(C)(C)C)cc1)C(N)=O)C(=O)N[C@H]1CC(=O)NCCCC[C@@H](C(N)=O)NC(=O)[C@H](Cc2c[nH]c3ccccc23)NC(=O)[C@H](CCCNC(=N)N)NC(=O)[C@@H](Cc2ccccc2)NC(=O)[C@H](Cc2c[nH]cn2)NC1=O [[^18F]2]
[1]; NDP blocking (20 μg coinjected), ex vivo after PET/CT scan, i.v., n = 3
  tissue uptake: 3.19 ± 0.33 %ID/g
[1]; c(RGDyK) blocking (200 μg coinjected), ex vivo after PET/CT scan, i.v., n = 3
  tissue uptake: 1.48 ± 0.12 %ID/g
[1]; double blocking (NDP + c(RGDyK)), ex vivo after PET/CT scan, i.v., n = 3
  tissue uptake: 1 ± 0.11 %ID/g
[1]; without blocking, ex vivo after PET/CT scan, i.v., n = 3
  tissue uptake: 2.33 ± 0.46 %ID/g
[1]; U87MG tumor / blood, without blocking, read-out: tumor/blood ratio, U87MG
  tissue to tissue ratio: 2.4 ± 0.67
[1]; U87MG tumor / kidneys, without blocking, read-out: tumor/kidneys ratio, U87MG
  tissue to tissue ratio: 0.18 ± 0.02
[1]; U87MG tumor / liver, without blocking, read-out: tumor/liver ratio, U87MG
  tissue to tissue ratio: 0.14 ± 0.03
[1]; U87MG tumor / muscle, without blocking, read-out: tumor/muscle ratio, U87MG
  tissue to tissue ratio: 0.79 ± 0.66
[1]; U87MG tumor, without blocking, ex vivo after PET/CT scan, i.v., n = 3
  tissue uptake at 1.5 h: 2.33 ± 0.46 %ID/g
[2]
  ID/g, U87MG tumor: 1.48 ± 0.12 % ID/g
B16F10 and U87MG tumors; PET/CT scans, MIPs 50–90 min post-injection
  visualization of B16F10 and U87MG tumors by PET/CT: clearly visualize
B16F10 and U87MG tumors; dynamic PET over 90 min, i.v.
  time at which uptakes in kidneys and liver reached their maximum (TACs): 5 to 10 min
B16F10 and U87MG tumors; dynamic PET over 90 min, i.v., B16F10 and U87MG tumors
  time at which the curves of both tumors approached a plateau (TACs): about 70 min
[3]; blood, NDP blocking (20 μg coinjected), read-out: ID/g, blood
  tissue uptake at 1.5 h: 0.84 ± 0.12 %ID/g
[3]; blood, c(RGDyK) blocking (200 μg coinjected), read-out: ID/g, blood
  tissue uptake at 1.5 h: 1.14 ± 0.15 %ID/g
[3]; blood, double blocking (NDP + c(RGDyK)), read-out: ID/g, blood
  tissue uptake at 1.5 h: 1.13 ± 0.1 %ID/g
[3]; blood, without blocking, read-out: ID/g, blood
  tissue uptake at 1.5 h: 0.99 ± 0.23 %ID/g
[3]; bone, NDP blocking (20 μg coinjected), read-out: ID/g, bone
  tissue uptake at 1.5 h: 9.74 ± 2.85 %ID/g
[3]; bone, c(RGDyK) blocking (200 μg coinjected), read-out: ID/g, bone
  tissue uptake at 1.5 h: 4.12 ± 0.73 %ID/g
[3]; bone, double blocking (NDP + c(RGDyK)), read-out: ID/g, bone
  tissue uptake at 1.5 h: 4.47 ± 1.57 %ID/g
[3]; bone, without blocking, read-out: ID/g, bone
  tissue uptake at 1.5 h: 8.01 ± 3.48 %ID/g
[3]; brain, NDP blocking (20 μg coinjected), read-out: ID/g, brain
  tissue uptake at 1.5 h: 0.13 ± 0.03 %ID/g
[3]; brain, c(RGDyK) blocking (200 μg coinjected), read-out: ID/g, brain
  tissue uptake at 1.5 h: 0.13 ± 0.05 %ID/g
[3]; brain, double blocking (NDP + c(RGDyK)), read-out: ID/g, brain
  tissue uptake at 1.5 h: 0.07 ± 0.01 %ID/g
[3]; brain, without blocking, read-out: ID/g, brain
  tissue uptake at 1.5 h: 0.18 ± 0.02 %ID/g
[3]; colon, NDP blocking (20 μg coinjected), read-out: ID/g, colon
  tissue uptake: 1.44 ± 0.34 %ID/g
[3]; colon, c(RGDyK) blocking (200 μg coinjected), read-out: ID/g, colon
  tissue uptake: 0.5 ± 0.07 %ID/g
[3]; colon, double blocking (NDP + c(RGDyK)), read-out: ID/g, colon
  tissue uptake: 0.63 ± 0.2 %ID/g
[3]; colon, without blocking, read-out: ID/g, colon
  tissue uptake: 1.58 ± 0.44 %ID/g
[3]; heart, NDP blocking (20 μg coinjected), read-out: ID/g, heart
  tissue uptake at 1.5 h: 1.06 ± 0.31 %ID/g
[3]; heart, c(RGDyK) blocking (200 μg coinjected), read-out: ID/g, heart
  tissue uptake at 1.5 h: 0.62 ± 0.09 %ID/g
[3]; heart, double blocking (NDP + c(RGDyK)), read-out: ID/g, heart
  tissue uptake at 1.5 h: 0.93 ± 0.18 %ID/g
[3]; heart, without blocking, read-out: ID/g, heart
  tissue uptake at 1.5 h: 1.24 ± 0.36 %ID/g
[3]; kidneys, NDP blocking (20 μg coinjected), read-out: ID/g, kidneys
  tissue uptake at 1.5 h: 17.3 ± 2.08 %ID/g
[3]; kidneys, c(RGDyK) blocking (200 μg coinjected), read-out: ID/g, kidneys
  tissue uptake at 1.5 h: 12.1 ± 2.3 %ID/g
[3]; kidneys, double blocking (NDP + c(RGDyK)), read-out: ID/g, kidneys
  tissue uptake at 1.5 h: 24 ± 6.34 %ID/g
[3]; kidneys, without blocking, read-out: ID/g, kidneys
  tissue uptake at 1.5 h: 13.2 ± 3.57 %ID/g
[3]; liver, NDP blocking (20 μg coinjected), read-out: ID/g, liver
  tissue uptake at 1.5 h: 14.9 ± 5.07 %ID/g
[3]; liver, c(RGDyK) blocking (200 μg coinjected), read-out: ID/g, liver
  tissue uptake at 1.5 h: 4.94 ± 1.39 %ID/g
[3]; liver, double blocking (NDP + c(RGDyK)), read-out: ID/g, liver
  tissue uptake at 1.5 h: 8.5 ± 2.71 %ID/g
[3]; liver, without blocking, read-out: ID/g, liver
  tissue uptake: 17.2 ± 6.58 %ID/g
[3]; lung, NDP blocking (20 μg coinjected), read-out: ID/g, lung
  tissue uptake at 1.5 h: 2.98 ± 0.87 %ID/g
[3]; lung, c(RGDyK) blocking (200 μg coinjected), read-out: ID/g, lung
  tissue uptake at 1.5 h: 1.07 ± 0.15 %ID/g
[3]; lung, double blocking (NDP + c(RGDyK)), read-out: ID/g, lung
  tissue uptake at 1.5 h: 1.3 ± 0.36 %ID/g
[3]; lung, without blocking, read-out: ID/g, lung
  tissue uptake at 1.5 h: 2.89 ± 1.04 %ID/g
[3]; muscle, NDP blocking (20 μg coinjected), read-out: ID/g, muscle
  tissue uptake at 1.5 h: 1.37 ± 0.26 %ID/g
[3]; muscle, c(RGDyK) blocking (200 μg coinjected), read-out: ID/g, muscle
  tissue uptake at 1.5 h: 0.38 ± 0.04 %ID/g
[3]; muscle, double blocking (NDP + c(RGDyK)), read-out: ID/g, muscle
  tissue uptake at 1.5 h: 0.34 ± 0.07 %ID/g
[3]; muscle, without blocking, read-out: ID/g, muscle
  tissue uptake at 1.5 h: 4.37 ± 2.58 %ID/g
[3]; pancreas, NDP blocking (20 μg coinjected), read-out: ID/g, pancreas
  tissue uptake at 1.5 h: 0.8 ± 0.15 %ID/g
[3]; pancreas, c(RGDyK) blocking (200 μg coinjected), read-out: ID/g, pancreas
  tissue uptake at 1.5 h: 0.36 ± 0.04 %ID/g
[3]; pancreas, double blocking (NDP + c(RGDyK)), read-out: ID/g, pancreas
  tissue uptake at 1.5 h: 0.55 ± 0.15 %ID/g
[3]; pancreas, without blocking, read-out: ID/g, pancreas
  tissue uptake at 1.5 h: 0.91 ± 0.29 %ID/g
[3]; small intestine, NDP blocking (20 μg coinjected), read-out: ID/g, small intestine
  tissue uptake: 2.75 ± 0.36 %ID/g
[3]; small intestine, c(RGDyK) blocking (200 μg coinjected), read-out: ID/g, small intestine
  tissue uptake: 0.75 ± 0.11 %ID/g
[3]; small intestine, double blocking (NDP + c(RGDyK)), read-out: ID/g, small intestine
  tissue uptake: 0.9 ± 0.23 %ID/g
[3]; small intestine, without blocking, read-out: ID/g, small intestine
  tissue uptake: 2.46 ± 1.77 %ID/g
[3]; spleen, NDP blocking (20 μg coinjected), read-out: ID/g, spleen
  tissue uptake: 2.75 ± 0.55 %ID/g
[3]; spleen, c(RGDyK) blocking (200 μg coinjected), read-out: ID/g, spleen
  tissue uptake: 0.94 ± 0.19 %ID/g
[3]; spleen, double blocking (NDP + c(RGDyK)), read-out: ID/g, spleen
  tissue uptake: 1.07 ± 0.32 %ID/g
[3]; spleen, without blocking, read-out: ID/g, spleen
  tissue uptake: 2.73 ± 0.85 %ID/g
[3]; stomach, NDP blocking (20 μg coinjected), read-out: ID/g, stomach
  tissue uptake: 1.52 ± 0.31 %ID/g
[3]; stomach, c(RGDyK) blocking (200 μg coinjected), read-out: ID/g, stomach
  tissue uptake: 0.54 ± 0.04 %ID/g
[3]; stomach, double blocking (NDP + c(RGDyK)), read-out: ID/g, stomach
  tissue uptake: 0.54 ± 0.12 %ID/g
[3]; stomach, without blocking, read-out: ID/g, stomach
  tissue uptake: 1.56 ± 0.29 %ID/g
[3]; tail, NDP blocking (20 μg coinjected), read-out: ID/g, tail
  tissue uptake at 1.5 h: 37.6 ± 8.67 %ID/g
[3]; tail, c(RGDyK) blocking (200 μg coinjected), read-out: ID/g, tail
  tissue uptake at 1.5 h: 69 ± 3.84 %ID/g
[3]; tail, double blocking (NDP + c(RGDyK)), read-out: ID/g, tail
  tissue uptake: 53.3 ± 12.8 %ID/g
[3]; tail, without blocking, read-out: ID/g, tail
  tissue uptake at 1.5 h: 38 ± 14.4 %ID/g
